PMC9585939, “Unveiling a family of spiro-β-lactams with anti-HIV and antiplasmodial activity via phosphine-catalyzed [3+2] annulation of 6-alkylidene-penicillanates and allenoates” (Frontiers in Chemistry, 2022)
Entries after “also recorded” stand apart in the source; their conditions may differ.

How the values were obtained:
HIV-1 SG3.1 = assay: microbe, parasite or virus in culture; details: for anti-HIV activity (in words) / Therapeutic index (CC50/IC50): HIV-1; for inhibition at 25 µg/mL / IC50 / IC90: Human immunodeficiency virus 1, TZM-bl; for inhibition at 25 µg/mL: read-out: MPI (%) 25 μg/mL; for Therapeutic index (CC50/IC50): CC50 in TZM-bl cells; for IC50 / IC90: 48 h; for IC50: read-out: IC50 HIV-1, TZM-bl cells, 48 h; for IC90: read-out: IC90 HIV-1
Text: The HIV-1 SG3.1 is a reference subtype B strain that uses the CXCR4 coreceptor. It was obtained by transfection of HEK293T cells with pSG3.1 plasmid using jetPRIME transfection reagent (Polyplus-transfection SA, Illkirch, France), according to the instructions of the manufacturer.
Briefly, TZM-bl cells were infected with 200 TCID50 of HIV-1 or HIV-2 in the presence of serial-fold dilutions of the compounds in the growth medium, supplemented with diethylaminoethyl-dextran (DEAE-dextran). After 48 h of infection, luciferase expression was quantified with Pierce Firefly Luc One-Step Glow Assay Kit (ThermoFisher Scientific, Rockford, United States), according to the instructions of the manufacturer. For each compound dilution, the assay was set up in triplicate wells. Virus controls, cell controls, and inhibitors controls (drugs with a known action against each virus) were employed.

[1] = Cellular viability assay (alamarBlue) in TZM-bl cells; format: cell-based; details: human, 50% cytotoxic concentration
Protocol: Before the antiviral activity screening, all spirocyclopentene-β-lactams were assayed for their in vitro cytotoxic activity (CC50) in TZM-bl cells (Table 4).
TZM-bl cells (AIDS Research and Reference Reagent Program, National Institutes of Health, United States) were cultured in complete growth medium consisting of Dulbecco’s Minimal Essential Medium (DMEM) supplemented with 10% fetal bovine serum (FBS), 100 U/ml of penicillin–streptomycin (Gibco/Invitrogen, United States), 1 mM of sodium pyruvate (Gibco/Invitrogen, United States), 2 mM of L-glutamine (Gibco/Invitrogen, United States), and 1 mM of non-essential amino acids (Gibco/Invitrogen, United States). Cell cultures were maintained at 37°C in 5% CO2.
The in vitro cytotoxicity of test compounds was evaluated in TZM-bl cells using alamarBlue cell viability reagent (Life Technologies, United States), according to the instructions of the manufacturer. The cells were cultured in the presence and absence of serial-fold dilutions of the test compounds. Each dilution of each compound was performed in triplicate wells. Medium controls (only growth medium), cell controls (cells without test compound), and cytotoxicity controls (a compound that kills cells) were employed in each assay.

| Compound | anti-HIV activity (in words) (HIV-1 SG3.1) | inhibition at 25 µg/mL (HIV-1 SG3.1) | CC50 [1] | melting point | Therapeutic index (CC50/IC50) (HIV-1 SG3.1) | IC50 (HIV-1 SG3.1) | IC90 (HIV-1 SG3.1) |
| --- | --- | --- | --- | --- | --- | --- | --- |
| CC1(C)SC2N(C(=O)C23CC=C(C(=O)Oc2ccccc2)C3C(=O)c2ccccc2)C1C(=O)OC(c1ccccc1)c1ccccc1 (stereo not drawn) [Compound 9a, (1′R,2′R)-Benzhydryl spiro[(2-benzoyl-3-phenoxycarbonylcyclopent-3-ene)-1′,6-penicillanate]] | lack of antiviral activity | 0% | 215 µM | > 137 °C (dec.) |  |  |  |
| CC(C)(C)c1ccc(OC(=O)C2=CCC3(C(=O)N4C(C(=O)OC(c5ccccc5)c5ccccc5)C(C)(C)SC43)C2C(=O)c2ccccc2)cc1 (stereo not shown) [Compound 9b, (1’R,2’R)-Benzhydryl spiro[(2-benzoyl-3-(4-tert-butylphenoxycarbonyl)cyclopent-3-ene)-1’,6-penicillanate]] |  | 0% | 54.7 µM | 206.7 to 208.9 °C |  |  |  |
| COc1cccc(OC(=O)C2=CCC3(C(=O)N4C(C(=O)OC(c5ccccc5)c5ccccc5)C(C)(C)SC43)C2C(=O)c2ccccc2)c1 (stereo not shown) [Compound 9c, (1’R,2’R)-Benzhydryl spiro[(2-benzoyl-3-(3-methoxyphenoxycarbonyl)cyclopent-3-ene)-1’,6-penicillanate]] |  | 0% | 58.1 µM | 67.8 to 69.7 °C |  |  |  |
| CC1(C)SC2N(C(=O)C23CC=C(C(=O)Oc2ccc4ccccc4c2)C3C(=O)c2ccccc2)C1C(=O)OC(c1ccccc1)c1ccccc1 (stereo not shown) [Compound 9d, (1’R,2’R)-Benzhydryl spiro[(2-benzoyl-3-(2-naphthoxycarbonyl)cyclopent-3-ene)-1’,6-penicillanate]] |  | 54% | 38 µM |  |  |  |  |
| CCCCCOC(=O)C1=CCC2(C(=O)N3C(C(=O)OC(c4ccccc4)c4ccccc4)C(C)(C)SC32)C1C(=O)c1ccccc1 (stereo not shown) [Compound 9e, (1’R,2’R)-Benzhydryl spiro[(2-benzoyl-3-pentoxycarbonylcyclopent-3-ene)-1’,6-penicillanate]] |  | 44% | 60.3 µM |  |  |  |  |
| CC(C)CCOC(=O)C1=CCC2(C(=O)N3C(C(=O)OC(c4ccccc4)c4ccccc4)C(C)(C)SC32)C1C(=O)c1ccccc1 (stereo not shown) [Compound 9f, (1’R,2’R)-Benzhydryl spiro[(2-benzoyl-3-isopentoxycarbonylcyclopent-3-ene)-1’,6-penicillanate]] |  | 21% | 53.4 µM |  |  |  |  |
| CC1(C)SC2N(C(=O)C23CC=C(C(=O)OC(c2ccccc2)c2ccccc2)C3C(=O)c2ccccc2)C1C(=O)OC(c1ccccc1)c1ccccc1 (stereo not shown) [Compound 9g, (1’R,2’R)-Benzhydryl spiro[(2-benzoyl-3-benzhydryloxycarbonylcyclopent-3-ene)-1’,6-penicillanate]] |  | 0% | 45.3 µM | 83.4 to 85.2 °C |  |  |  |
| CC1(C)SC2N(C(=O)C23CC=C(C(=O)OCc2ccc([N+](=O)[O-])cc2)C3C(=O)c2ccccc2)C1C(=O)OC(c1ccccc1)c1ccccc1 (stereo not shown) [Compound 9h, (1’R,2’R)-Benzhydryl spiro[(2-benzoyl-3-(4-nitrobenzyloxycarbonyl)cyclopent-3-ene)-1’,6-penicillanate]] | inactive; also recorded: total loss of antiviral activity | 0% | 56 µM | 81.2 to 83.1 °C |  |  |  |
| Cc1ccc(COC(=O)C2=CCC3(C(=O)N4C(C(=O)OC(c5ccccc5)c5ccccc5)C(C)(C)SC43)C2C(=O)c2ccccc2)cc1 (stereo not shown) [Compound 9j, (1’R,2’R)-Benzhydryl spiro[(2-benzoyl-3-(4-methylbenzyloxycarbonyl)cyclopent-3-ene)-1’,6-penicillanate]] |  | 93% | 60 µM | 59 to 60.8 °C | 674.49 | 0.089 µM | 0.209 µM |
| CC1(C)SC2N(C(=O)C23CC=C(C(=O)OCc2ccc(Cl)cc2)C3C(=O)c2ccccc2)C1C(=O)OC(c1ccccc1)c1ccccc1 (stereo not shown) [Compound 9k, (1’R,2’R)-Benzhydryl spiro[(2-benzoyl-3-(4-chlorobenzyloxycarbonyl)cyclopent-3-ene)-1’,6-penicillanate]] |  | 84% | 54.1 µM | 49.8 to 51.5 °C | 148.11 | 0.366 µM |  |
| CC1(C)SC2N(C(=O)C23CC=C(C(=O)OCc2ccc(F)cc2)C3C(=O)c2ccccc2)C1C(=O)OC(c1ccccc1)c1ccccc1 (stereo not shown) [Compound 9l, (1’R,2’R)-Benzhydryl spiro[(2-benzoyl-3-(4-fluorobenzyloxycarbonyl)cyclopent-3-ene)-1’,6-penicillanate]] |  | 100% | 55.8 µM | 67.2 to 69.3 °C | 502.97 | 0.111 µM | 0.221 µM |
| C#CCOC(=O)C1=CCC2(C(=O)N3C(C(=O)OC(c4ccccc4)c4ccccc4)C(C)(C)SC32)C1C(=O)c1ccccc1 (stereo not shown) [Compound 9m, (1’R,2’R)-Benzhydryl spiro[(2-benzoyl-3-(prop-2-yn-1-yloxycarbonyl)cyclopent-3-ene)-1’,6-penicillanate]] |  | 94% | 60.1 µM | 62.2 to 64.8 °C | 296.11 | 0.203 µM | 0.437 µM |
| CC(COC(=O)C1=CCC2(C(=O)N3C(C(=O)OC(c4ccccc4)c4ccccc4)C(C)(C)SC32)C1C(=O)c1ccccc1)c1ccccc1 (stereo not shown) [Compound 9o, (1’R,2’R)-Benzhydryl spiro[(2-benzoyl-3-(1-phenylpropan-2-yloxycarbonyl)cyclopent-3-ene)-1’,6-penicillanate]] |  | 0% | 44.7 µM |  |  |  |  |
| CC1(C)SC2N(C(=O)C23CC=C(C(=O)OCc2ccccc2)C3C(=O)c2ccc(Cl)cc2)C1C(=O)OC(c1ccccc1)c1ccccc1 (stereo not shown) [Compound 12b, (1’R,2’R)-Benzhydryl spiro[(2-(4-chlorobenzoyl)-3-benzyloxycarbonylcyclopent-3-ene)-1’,6-penicillanate]] |  | 92% | 56 µM | 145.2 to 146.5 °C | 888.73 | 0.063 µM | 0.104 µM |
| CC1(C)SC2N(C(=O)C23CC=C(C(=O)OCc2ccccc2)C3C(=O)c2ccc([N+](=O)[O-])cc2)C1C(=O)OC(c1ccccc1)c1ccccc1 (stereo not shown) [Compound 12d, (1’R,2’R)-Benzhydryl spiro[(2-(4-nitrobenzoyl)-3-benzyloxycarbonylcyclopent-3-ene)-1’,6-penicillanate]] |  | 80% | 53 µM | 122 to 123.7 °C | 297.75 | 0.178 µM | 0.413 µM |
| CC1(C)SC2N(C(=O)C23CC=C(C(=O)OCc2ccccc2)C3C(=O)c2ccc(C(F)(F)F)cc2)C1C(=O)OC(c1ccccc1)c1ccccc1 (stereo not shown) [Compound 12e, (1’R,2’R)-Benzhydryl spiro[(2-(4-trifluoromethylbenzoyl)-3-benzyloxycarbonylcyclopent-3-ene)-1’,6-penicillanate]] |  | 76% | 64.4 µM | 134.1 to 135.5 °C | 49.39 | 1.3 µM | 1.5 µM |
| CC1(C)SC2N(C(=O)C23CC=C(C(=O)OCc2ccccc2)C3C(=O)c2cc(F)cc(F)c2)C1C(=O)OC(c1ccccc1)c1ccccc1 (stereo not shown) [Compound 12f, (1’R,2’R)-Benzhydryl spiro[(2-(3,5-difluorobenzoyl)-3-benzyloxycarbonylcyclopent-3-ene)-1’,6-penicillanate]] |  | 88% | 70.1 µM | 69.5 to 71.5 °C | 531.34 | 0.132 µM | 0.585 µM |
| CC1(C)SC2N(C(=O)C23CC=C(C(=O)OCc2ccccc2)C3C(=O)c2ccc3ccccc3c2)C1C(=O)OC(c1ccccc1)c1ccccc1 (stereo not shown) [Compound 12h, (1’R,2’R)-Benzhydryl spiro[(2-naphthoyl-3-benzyloxycarbonylcyclopent-3-ene)-1’,6-penicillanate]] |  | 0% | 73.6 µM | 81.5 to 83.5 °C |  |  |  |
| Cc1ccc(COC(=O)C2=CCC3(C(=O)N4C(C(=O)OC(c5ccccc5)c5ccccc5)C(C)(C)SC43)C2C(=O)c2ccc(F)cc2)cc1 (stereo not shown) [Compound 14b, (1’R,2’R)-Benzhydryl spiro[(2-(4-fluorobenzoyl)-3-(4-methylbenzyloxycarbonyl)cyclopent-3-ene)-1’,6-penicillanate]] |  | 95% | 78.3 µM |  |  | 0.146 µM | 0.338 µM |
